For data set [1] the following is noted: Crystal; DTA.
Data set [2] is described as follows: Molar enthalpy of transition or fusion. The conditions noted are these: Crystal; DSC.

Numbers after ± are expanded uncertainties.

Consider `CCCCCCCCCCCCO` [dodecan-1-ol], for which, in data set [1], the Normal melting temperature was 24.00 ± 0.53 °C. Besides, in data set [2], the “Molar enthalpy of transition or fusion” value came out at 9.33 ± 0.263 kcal/mol.

In the case of `CCCCCCCCCCCCCCCCCC` [octadecane], the Normal melting temperature in data set [1] is 27.80 ± 0.53 °C. For the same molecule, the “Molar enthalpy of transition or fusion” value in data set [2] came out at 14.7 ± 0.406 kcal/mol.

(Values after the NIST ThermoML archive (doi:10.1016/j.jct.2013.01.019).)
